Reference: patent EP0909175B1, “NON-AQUEOUS PROTIC PEPTIDE FORMULATIONS” (ALZA CORPORATION, priority 1996, dated 1998)

What was measured:
Format in all cases: physicochemical
[1] = Solubility studies of leuprolide acetate in PG (Example 3); conditions: in PG (w/w), heated at 80°C to accelerate dissolution
Method: Leuprolide acetate (obtained, for example, from Mallinckrodt, St. Louis, Missouri) was weighed and dissolved using heat (80°C), swirling, agitation and/or centrifugation as needed, in vehicle (PG, PEG, MPEG, PG/H2O, PG/H2O, PEG/PG, MPEG/H2O, or PG with EDTA) at the appropriate concentration (w/w). Unless otherwise noted the term PEG means PEG 300. The term dry PG refers to PG formulations prepared in a low moisture environment (i.e., dry N2 atmosphere). Leuprolide acetate formulations in PG were prepared as described above. Formulations were heated at 80°C to accelerate the dissolution of leuprolide in PG.

[2] = Anti-gellant effect of adding polar aprotic solvents (DMSO) to non-aqueous protic solvent formulations; conditions: adding polar aprotic solvents such as DMSO to non-aqueous protic solvent formulation
Excerpt: For example, leuprolide can be induced to gel by increasing peptide concentration, introduction of salts or gentle agitation. Improving physical stability can allow for easier parenteral administration, including administration using implantable drug delivery systems.
Thus, these solvents have an anti-gellant effect.

[3] = Stability of goserelin formulations, one month at 37°C, RP-HPLC (Example 10); conditions: for % CONCENTRATION: patent calls % concentration data unreliable
Method: (§1) Stability samples were analyzed using RP-HPLC. The area under the curve for the leuprolide peak divided by the sum of the areas under the curve of all peaks gave % purity. [It should be noted that the data for % concentration presented with the % purity data (Examples 6, 8, 9 and 10) are inconclusive. The analysis methods used to determine % concentration in these experiments were unreliable.]
Formulations of 40-45% (w/w) goserelin in either PEG 600 or PG/acetate buffer (30:70) were prepared as described above and placed in polymeric containers. The containers were stored at 37°C for one month in an incubator. The samples were analyzed using RP-HPLC to determine the chemical stability of the aged formulations.

[4] = Stability of nafarelin formulations, one month at 37°C, RP-HPLC (Example 11); conditions: for % CONCENTRATION: % concentration method called unreliable
Method: as §1
Formulations of 15% (w/w) nafarelin in either PEG 600 or propylene glycol were prepared as described above for leuprolide and placed in polymeric containers.
The containers were stored at 37°C for one month in an incubator.
The samples were analyzed using RP-HPLC to determine the chemical stability of the aged formulations.

[5] = vehicle PEG 600, one month at 37°C

## Leuprolide acetate
[1]; 146.8 mg leuprolide acetate in 147.2 mg PG
  % Leuprolide Acetate: 49.93%
[1]; 148.6 mg leuprolide acetate in 225.7 mg PG
  % Leuprolide Acetate: 39.70%
[1]; 154 mg leuprolide acetate in 183.7 mg PG
  % Leuprolide Acetate: 45.60%

## calcitonin
[2]
  gelation of the formulation: prevents gelation

## goserelin
[2]
  gelation of the formulation: prevents gelation
[3]; vehicle PEG 600, 40-45% (w/w), one month at 37°C
  % PURITY: 99.3%
[3]; [5]
  % CONCENTRATION: 23.6%
[3]; vehicle PG/Acetate Buffer(30:70), 40-45% (w/w), one month at 37°C
  % PURITY: 98.2%
[3]; vehicle PG/Acetate Buffer(30:70), one month at 37°C
  % CONCENTRATION: 49.7%

## leuprolide
[2]
  gelation of the formulation: prevents gelation

## nafarelin
[4]; vehicle PEG 600, 15% (w/w), one month at 37°C
  % PURITY: 99.4%
[4]; [5]
  % CONCENTRATION: 15.8%
[4]; vehicle PG, 15% (w/w), one month at 37°C
  % PURITY: 99.4%
[4]; vehicle PG, one month at 37°C
  % CONCENTRATION: 12.9%
